The values that follow come from patent US20140275094A1, “METHOD FOR TREATING PULMONARY ARTERIAL HYPERTENSION IN A PATIENT NOT HAVING IDIOPATHIC PULMONARY FIBROSIS” (GILEAD SCIENCES, INC., priority 2012, published 2014).

One data set concerns human hepatocytes. As to conditions: cited from earlier work.
In data set [1] the target is T1, human bile salt export pump (BSEP) (Homo sapiens, UniProt O95342).
T1 construct: expressed in transfected cells; host or cells: Sf9 cell membrane vesicles
Nature of the data set: Inhibition of hepatic transporter BSEP, Sf9 cell membrane vesicles. Type of data set: biochemical. The protocol: (§1) Inhibition constants (IC50) were measured for human bile salt export pump (BSEP), sodium taurocholate cotransporting polypeptide (NTCP), multidrug resistance protein 2 (MRP2), P-glycoprotein (Pgp), breast cancer resistance protein (BCRP), organic anion-transporting polypeptide 1B1 (OATP1B1), and OATP1B3 in transfected cell-lines. Known inhibitors were used as positive controls.

In the next data set the target is T2, P-glycoprotein (Pgp) (Homo sapiens, UniProt P08183).
T2 construct: expressed in transfected cells; host or cells: Madin-Darby canine kidney strain II (MDCKII)
As to the kind of experiment: Inhibition of Pgp, transfected MDCKII cells. Type of data set: cell-based. The procedure:
as §1

A further data set addresses T3, OATP1B3 (Homo sapiens, UniProt Q9NPD5).
T3 construct: expressed in transfected cells; host or cells: CHO
T3 sequence (Q9NPD5 1-702): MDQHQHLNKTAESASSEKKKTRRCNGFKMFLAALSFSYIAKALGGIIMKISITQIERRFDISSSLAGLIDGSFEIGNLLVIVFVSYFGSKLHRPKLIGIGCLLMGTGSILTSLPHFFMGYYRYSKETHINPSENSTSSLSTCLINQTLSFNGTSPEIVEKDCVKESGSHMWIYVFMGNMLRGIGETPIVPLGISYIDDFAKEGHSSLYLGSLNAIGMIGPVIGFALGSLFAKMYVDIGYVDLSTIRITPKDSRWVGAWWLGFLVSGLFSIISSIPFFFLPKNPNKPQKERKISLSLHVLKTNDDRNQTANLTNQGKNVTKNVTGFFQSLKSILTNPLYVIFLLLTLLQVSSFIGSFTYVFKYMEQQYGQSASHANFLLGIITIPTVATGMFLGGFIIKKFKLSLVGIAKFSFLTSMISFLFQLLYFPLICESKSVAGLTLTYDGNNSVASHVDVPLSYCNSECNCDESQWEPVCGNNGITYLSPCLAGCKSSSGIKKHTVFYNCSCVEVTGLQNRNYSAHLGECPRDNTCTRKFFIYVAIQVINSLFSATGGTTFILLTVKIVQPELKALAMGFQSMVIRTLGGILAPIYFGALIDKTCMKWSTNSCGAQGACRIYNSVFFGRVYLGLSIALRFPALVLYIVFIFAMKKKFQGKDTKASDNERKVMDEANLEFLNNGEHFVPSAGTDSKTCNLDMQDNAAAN
As to the kind of experiment: Inhibition of OATP1B3, transfected CHO cells. Type of data set: cell-based. As to conditions: OAT1B3. The protocol:
as §1

Data set [2] has as its target T4, organic anion-transporting polypeptide 1B1 (OATP1B1) (Homo sapiens, UniProt Q9Y6L6).
T4 construct: expressed in transfected cells; host or cells: CHO
T4 sequence (Q9Y6L6 1-691): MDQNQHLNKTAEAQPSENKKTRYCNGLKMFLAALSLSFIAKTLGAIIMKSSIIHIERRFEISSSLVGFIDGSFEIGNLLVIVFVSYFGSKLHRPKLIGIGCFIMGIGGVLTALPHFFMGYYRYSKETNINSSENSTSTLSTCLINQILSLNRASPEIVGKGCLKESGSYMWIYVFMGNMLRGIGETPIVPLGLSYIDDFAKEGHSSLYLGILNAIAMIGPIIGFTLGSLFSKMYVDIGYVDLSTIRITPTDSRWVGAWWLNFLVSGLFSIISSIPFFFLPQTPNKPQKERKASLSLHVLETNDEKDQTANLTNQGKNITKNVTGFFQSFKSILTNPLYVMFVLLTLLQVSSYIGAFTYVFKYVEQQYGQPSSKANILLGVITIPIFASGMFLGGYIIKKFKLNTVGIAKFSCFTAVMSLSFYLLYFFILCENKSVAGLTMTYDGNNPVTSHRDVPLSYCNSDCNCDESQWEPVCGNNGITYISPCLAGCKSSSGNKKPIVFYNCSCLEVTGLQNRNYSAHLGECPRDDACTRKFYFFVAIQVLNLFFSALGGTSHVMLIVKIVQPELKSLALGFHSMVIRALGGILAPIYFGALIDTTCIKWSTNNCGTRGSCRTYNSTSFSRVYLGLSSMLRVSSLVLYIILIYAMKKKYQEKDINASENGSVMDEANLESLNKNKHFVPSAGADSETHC
As to the kind of experiment: Inhibition of OATP1B1, transfected CHO cells. Type of data set: cell-based. The protocol:
as §1

For data set [3], the target named is T5, sodium taurocholate cotransporting polypeptide (NTCP) (Homo sapiens, UniProt Q14973).
T5 construct: expressed in transfected cells; host or cells: Chinese Hamster Ovary (CHO)
T5 sequence (Q14973 1-349): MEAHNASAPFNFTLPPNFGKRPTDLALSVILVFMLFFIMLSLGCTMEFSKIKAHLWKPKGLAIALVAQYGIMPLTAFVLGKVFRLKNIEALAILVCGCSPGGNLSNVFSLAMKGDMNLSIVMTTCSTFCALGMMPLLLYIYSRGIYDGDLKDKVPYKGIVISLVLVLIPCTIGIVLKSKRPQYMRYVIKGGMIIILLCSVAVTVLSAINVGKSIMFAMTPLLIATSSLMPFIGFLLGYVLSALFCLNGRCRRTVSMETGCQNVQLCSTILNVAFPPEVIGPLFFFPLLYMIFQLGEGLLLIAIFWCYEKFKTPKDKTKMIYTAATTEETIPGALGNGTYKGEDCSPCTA
As to the kind of experiment: Inhibition of hepatic transporter NTCP, transfected CHO cells. Type of data set: cell-based. The procedure: as §1

Data set [4] has as its target T6, breast cancer resistance protein (BCRP) (Homo sapiens, UniProt Q9UNQ0).
T6 construct: expressed in transfected cells; host or cells: MDCKII
T6 sequence (Q9UNQ0 1-655): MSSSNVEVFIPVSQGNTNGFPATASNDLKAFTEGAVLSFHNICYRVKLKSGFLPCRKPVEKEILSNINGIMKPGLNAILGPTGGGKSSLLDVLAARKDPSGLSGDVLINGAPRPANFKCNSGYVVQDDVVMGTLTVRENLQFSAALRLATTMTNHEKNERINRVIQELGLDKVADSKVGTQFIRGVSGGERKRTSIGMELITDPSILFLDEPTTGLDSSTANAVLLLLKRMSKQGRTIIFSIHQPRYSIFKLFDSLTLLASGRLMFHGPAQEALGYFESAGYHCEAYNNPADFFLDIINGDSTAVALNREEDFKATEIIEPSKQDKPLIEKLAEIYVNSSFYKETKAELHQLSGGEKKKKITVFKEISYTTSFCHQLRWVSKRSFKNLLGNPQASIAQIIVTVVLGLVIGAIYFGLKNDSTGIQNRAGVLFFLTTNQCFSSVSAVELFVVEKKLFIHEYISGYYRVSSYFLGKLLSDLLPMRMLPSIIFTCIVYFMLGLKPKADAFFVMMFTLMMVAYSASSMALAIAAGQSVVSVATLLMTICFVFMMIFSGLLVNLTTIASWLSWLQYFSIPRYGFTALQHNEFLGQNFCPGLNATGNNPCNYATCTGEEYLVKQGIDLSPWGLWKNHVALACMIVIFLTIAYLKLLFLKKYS
As to the kind of experiment: Inhibition of BCRP, transfected MDCKII cells. Type of data set: cell-based. The procedure:
as §1

T1 sequence (O95342 whole entry): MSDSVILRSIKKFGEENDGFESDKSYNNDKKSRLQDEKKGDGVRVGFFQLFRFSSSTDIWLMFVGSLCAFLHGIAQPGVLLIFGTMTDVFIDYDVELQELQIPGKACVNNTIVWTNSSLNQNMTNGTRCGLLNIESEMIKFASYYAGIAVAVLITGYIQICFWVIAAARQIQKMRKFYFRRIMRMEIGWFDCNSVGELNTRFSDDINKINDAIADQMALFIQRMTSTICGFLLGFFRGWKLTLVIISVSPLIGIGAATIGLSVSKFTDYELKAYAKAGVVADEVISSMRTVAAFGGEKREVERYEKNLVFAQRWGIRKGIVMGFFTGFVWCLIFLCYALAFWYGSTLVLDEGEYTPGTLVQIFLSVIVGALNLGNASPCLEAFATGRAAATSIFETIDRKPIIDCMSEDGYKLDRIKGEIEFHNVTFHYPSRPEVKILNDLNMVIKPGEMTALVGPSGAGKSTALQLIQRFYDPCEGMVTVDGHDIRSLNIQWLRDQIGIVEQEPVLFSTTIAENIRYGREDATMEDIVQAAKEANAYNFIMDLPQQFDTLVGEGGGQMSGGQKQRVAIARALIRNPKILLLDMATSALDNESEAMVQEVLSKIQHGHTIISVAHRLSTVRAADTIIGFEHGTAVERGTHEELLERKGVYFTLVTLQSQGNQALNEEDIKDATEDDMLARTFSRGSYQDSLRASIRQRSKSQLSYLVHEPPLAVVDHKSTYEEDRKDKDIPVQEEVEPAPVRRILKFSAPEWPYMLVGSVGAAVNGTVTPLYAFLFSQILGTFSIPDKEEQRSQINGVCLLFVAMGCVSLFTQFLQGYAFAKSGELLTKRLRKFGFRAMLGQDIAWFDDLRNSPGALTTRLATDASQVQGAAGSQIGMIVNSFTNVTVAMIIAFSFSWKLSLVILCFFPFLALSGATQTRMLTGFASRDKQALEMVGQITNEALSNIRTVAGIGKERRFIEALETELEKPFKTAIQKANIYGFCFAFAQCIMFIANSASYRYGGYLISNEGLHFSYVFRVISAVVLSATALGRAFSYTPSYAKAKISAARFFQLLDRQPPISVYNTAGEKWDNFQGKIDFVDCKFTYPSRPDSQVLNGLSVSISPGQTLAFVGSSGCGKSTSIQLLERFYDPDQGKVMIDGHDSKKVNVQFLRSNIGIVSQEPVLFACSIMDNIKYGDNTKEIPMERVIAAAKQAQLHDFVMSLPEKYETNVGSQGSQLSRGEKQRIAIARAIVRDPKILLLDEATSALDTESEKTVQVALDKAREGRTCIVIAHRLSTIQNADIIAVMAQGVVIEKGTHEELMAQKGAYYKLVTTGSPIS
T2 sequence (P08183 whole entry): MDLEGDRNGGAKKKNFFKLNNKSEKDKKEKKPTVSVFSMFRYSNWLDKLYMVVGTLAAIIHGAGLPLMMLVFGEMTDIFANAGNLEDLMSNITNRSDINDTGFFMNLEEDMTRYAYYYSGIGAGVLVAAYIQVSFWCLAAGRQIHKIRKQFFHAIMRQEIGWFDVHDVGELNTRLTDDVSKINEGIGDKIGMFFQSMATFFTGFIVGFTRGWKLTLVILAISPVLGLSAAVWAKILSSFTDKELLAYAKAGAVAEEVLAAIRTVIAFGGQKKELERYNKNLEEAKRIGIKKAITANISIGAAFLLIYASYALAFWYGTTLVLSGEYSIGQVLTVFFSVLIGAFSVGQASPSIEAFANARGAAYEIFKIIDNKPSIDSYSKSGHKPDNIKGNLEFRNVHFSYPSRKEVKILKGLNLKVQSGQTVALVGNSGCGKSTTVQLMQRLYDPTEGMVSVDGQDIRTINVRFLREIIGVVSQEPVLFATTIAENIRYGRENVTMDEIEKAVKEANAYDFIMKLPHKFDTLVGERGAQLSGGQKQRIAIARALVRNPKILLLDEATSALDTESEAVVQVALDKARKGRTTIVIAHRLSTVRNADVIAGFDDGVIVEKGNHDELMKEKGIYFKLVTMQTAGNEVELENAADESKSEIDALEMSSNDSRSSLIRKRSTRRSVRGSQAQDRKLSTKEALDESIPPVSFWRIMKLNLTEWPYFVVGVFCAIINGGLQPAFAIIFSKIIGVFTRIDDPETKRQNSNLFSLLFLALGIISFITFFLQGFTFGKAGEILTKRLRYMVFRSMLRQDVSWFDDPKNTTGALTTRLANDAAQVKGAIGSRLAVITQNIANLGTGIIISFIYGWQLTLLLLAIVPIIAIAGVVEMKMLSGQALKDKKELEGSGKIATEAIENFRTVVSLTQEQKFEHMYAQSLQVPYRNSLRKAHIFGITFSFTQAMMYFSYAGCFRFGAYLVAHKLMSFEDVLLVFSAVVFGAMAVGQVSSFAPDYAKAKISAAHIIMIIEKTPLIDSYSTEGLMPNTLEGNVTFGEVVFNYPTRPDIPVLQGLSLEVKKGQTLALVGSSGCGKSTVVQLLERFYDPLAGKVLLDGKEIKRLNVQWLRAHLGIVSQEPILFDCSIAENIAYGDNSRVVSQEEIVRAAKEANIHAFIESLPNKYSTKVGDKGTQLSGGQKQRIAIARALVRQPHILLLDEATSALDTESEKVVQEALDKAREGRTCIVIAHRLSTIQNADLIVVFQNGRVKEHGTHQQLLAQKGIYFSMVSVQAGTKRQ

`Cc1cc2c(cc1CC(=O)c1sccc1S(=O)(=O)Nc1onc(C)c1Cl)OCO2` [sitaxsentan]: in the data set with human hepatocytes, the “effect on hepatobiliary transporter activity” value is on record as “decreased transporter activity to the greatest extent”.
For `COc1cc(OC)nc(O[C@H](C(=O)O)C(OC)(c2ccccc2)c2ccccc2)n1` [darusentan], the “effect on hepatobiliary transporter activity” value in the data set with human hepatocytes is “less potent”.
Regarding `CCCNS(=O)(=O)Nc1ncnc(OCCOc2ncc(Br)cn2)c1-c1ccc(Br)cc1` [Macitentan, N-[5-(4-bromophenyl)-6-(2-(5-bromopyrimidin-2-yloxy)ethoxy)-pyrimidin-4-yl]-N′-propylaminosulfonamide], the “effect on BSEP” value in data set [1] is on record as “inhibition was observed”. Moreover, the IC50 (usually the point on the concentration scale where inhibition reaches its midpoint) was determined as 12 µM in data set [1] (BSEP); 64 ± 15 µM on P-glycoprotein (Pgp); 2.1 ± 0.3 µM on OATP1B3; 2 ± 0.3 µM in data set [2]; 8 µM in data set [3] (NTCP); 75 ± 37 µM in data set [4]. For the same compound, in data set [3], the “effect on NTCP” value is “inhibition was observed”.
